The values below come from BindingDB's records for doi:10.1016/j.bmc.2009.08.052 (Okayama University, 2009).

Test [1] addresses Beta-hexosaminidase (Homo sapiens). Put plainly: Inhibition of human placenta beta-N-acetylglucosaminidase by pNP-GlcNAc substrate hydrolysis assay.
For test [2] the target is unchanged. The test can be described thus: Mixed type inhibition of human placenta beta-N-acetylglucosaminidase by pNP-GlcNAc substrate hydrolysis assay.

A word on the IC50: it is the concentration needed to halve the response being measured. Read a high IC50 as a need for much substance. In general, Ki refers to a dissociation constant, usually derived from enzyme kinetics or from competition with a known ligand. In test [1], `CC(=O)NC[C@H]1[C@H](O)[C@H](O)[C@@H]2[C@H](O)C[C@@H](CO)N21` [(1R*, 3S*, 5S*, 6S*, 7R*, 7a S*)-5-acetamidomethyl-3-hydroxymethyl-1,6,7-trihydroxypyrrolizidine] had an IC50 of 2.39 nM. The Ki in test [2] was 1.25 nM.
